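Values below derive from 48-hour exposures of cells grown in 96-well plates, with endpoints linearly interpolated between the two concentrations bracketing the appropriate inhibition level. At the TGI there is no net growth.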
Legend:
Experiment in all cases: NCI tumour cell line growth inhibition, 48 h
NCI-H23 lung = system: NCI-H23 lung
SK-MEL-2 melanoma = system: SK-MEL-2 melanoma
OVCAR-8 ovarian = system: OVCAR-8 ovarian
DMS 114 small cell lung = system: DMS 114 small cell lung
NCI-H226 lung = system: NCI-H226 lung
EKVX NSCLC = system: EKVX NSCLC
MOLT-4 leukemia = system: MOLT-4 leukemia
SF-539 CNS = system: SF-539 CNS
RXF 393 renal = system: RXF 393 renal
SF-268 CNS = system: SF-268 CNS
HL-60(TB) leukemia = system: HL-60(TB) leukemia
MALME-3M melanoma = system: MALME-3M melanoma
M19-MEL melanoma = system: M19-MEL melanoma
HOP-92 NSCLC = system: HOP-92 NSCLC
A549 NSCLC = system: A549 NSCLC
IGROV1 ovarian = system: IGROV1 ovarian
LOX IMVI melanoma = system: LOX IMVI melanoma
OVCAR-5 ovarian = system: OVCAR-5 ovarian
U251 CNS = system: U251 CNS
SNB-19 CNS = system: SNB-19 CNS
UACC-62 melanoma = system: UACC-62 melanoma
SK-MEL-28 melanoma = system: SK-MEL-28 melanoma
OVCAR-4 ovarian = system: OVCAR-4 ovarian
NCI/ADR-RES ovarian = system: NCI/ADR-RES ovarian
A498 renal = system: A498 renal
HT29 colon = system: HT29 colon
HOP-18 NSCLC = system: HOP-18 NSCLC
SF-295 CNS = system: SF-295 CNS
DLD-1 colon = system: DLD-1 colon
SN12K1 renal = system: SN12K1 renal
UACC-257 melanoma = system: UACC-257 melanoma
UO-31 renal = system: UO-31 renal
RPMI-8226 leukemia = system: RPMI-8226 leukemia
SK-MEL-5 melanoma = system: SK-MEL-5 melanoma
HCT-15 colon = system: HCT-15 colon
SNB-75 CNS = system: SNB-75 CNS
HOP-62 NSCLC = system: HOP-62 NSCLC
OVCAR-3 ovarian = system: OVCAR-3 ovarian
MCF7 breast = system: MCF7 breast
KM12 colon = system: KM12 colon
COLO 205 colon = system: COLO 205 colon
SK-OV-3 ovarian = system: SK-OV-3 ovarian
SN12C renal = system: SN12C renal
HCC-2998 colon = system: HCC-2998 colon
KM20L2 colon = system: KM20L2 colon
P388 leukemia = system: P388 leukemia
DMS 273 small cell lung = system: DMS 273 small cell lung
SNB-78 CNS = system: SNB-78 CNS
K-562 leukemia = system: K-562 leukemia
SW-620 colon = system: SW-620 colon
NCI-H460 lung = system: NCI-H460 lung
NCI-H522 lung = system: NCI-H522 lung
CCRF-CEM leukemia = system: CCRF-CEM leukemia
XF 498 CNS = system: XF 498 CNS
HCT-116 colon = system: HCT-116 colon
CAKI-1 renal = system: CAKI-1 renal
P388/ADR leukemia = system: P388/ADR leukemia

CCCCCOc1ccc(C=Nc2ccc(-c3ccc(N=Cc4ccc(OCCCCC)cc4)c(OC)c3)cc2OC)cc1
TGI (NCI-H23 lung): > 100 µM | TGI (SK-MEL-2 melanoma): > 100 µM | TGI (OVCAR-8 ovarian): > 100 µM | TGI (DMS 114 small cell lung): > 100 µM | TGI (NCI-H226 lung): > 100 µM | TGI (EKVX NSCLC): > 100 µM | TGI (MOLT-4 leukemia): > 100 µM | TGI (SF-539 CNS): > 100 µM | TGI (RXF 393 renal): > 100 µM | TGI (SF-268 CNS): > 100 µM | TGI (HL-60(TB) leukemia): > 100 µM | TGI (MALME-3M melanoma): > 100 µM | TGI (M19-MEL melanoma): > 100 µM | TGI (HOP-92 NSCLC): > 100 µM | TGI (A549 NSCLC): > 100 µM | TGI (IGROV1 ovarian): > 100 µM | TGI (LOX IMVI melanoma): > 100 µM | TGI (OVCAR-5 ovarian): > 100 µM | TGI (U251 CNS): > 100 µM | TGI (SNB-19 CNS): > 100 µM | TGI (UACC-62 melanoma): > 100 µM | TGI (SK-MEL-28 melanoma): > 100 µM | TGI (OVCAR-4 ovarian): > 31.6 µM | TGI (NCI/ADR-RES ovarian): > 100 µM | TGI (A498 renal): > 100 µM | TGI (HT29 colon): > 100 µM | TGI (HOP-18 NSCLC): > 100 µM | TGI (SF-295 CNS): > 100 µM | TGI (DLD-1 colon): > 100 µM | TGI (SN12K1 renal): > 100 µM | TGI (UACC-257 melanoma): > 100 µM | TGI (UO-31 renal): > 100 µM | TGI (RPMI-8226 leukemia): > 100 µM | TGI (SK-MEL-5 melanoma): > 100 µM | TGI (HCT-15 colon): > 100 µM | TGI (SNB-75 CNS): > 100 µM | TGI (HOP-62 NSCLC): > 100 µM | TGI (OVCAR-3 ovarian): > 100 µM | TGI (MCF7 breast): > 100 µM | TGI (KM12 colon): > 100 µM | TGI (COLO 205 colon): > 100 µM | TGI (SK-OV-3 ovarian): > 100 µM | TGI (SN12C renal): > 100 µM | TGI (HCC-2998 colon): > 100 µM | TGI (KM20L2 colon): > 100 µM | TGI (P388 leukemia): > 100 µM | TGI (DMS 273 small cell lung): > 100 µM | TGI (SNB-78 CNS): > 100 µM | TGI (K-562 leukemia): > 31.6 µM | TGI (SW-620 colon): > 100 µM | TGI (NCI-H460 lung): > 100 µM | TGI (NCI-H522 lung): > 100 µM | TGI (CCRF-CEM leukemia): > 100 µM | TGI (XF 498 CNS): > 100 µM | TGI (HCT-116 colon): > 100 µM

CN(C)CCN=C1c2ccccc2-c2c(=O)n(CCN(C)C)c(O)c3cccc1c23
TGI (NCI-H23 lung): 0.258 µM | TGI (SK-MEL-2 melanoma): 0.857 µM | TGI (OVCAR-8 ovarian): 0.433 µM | TGI (DMS 114 small cell lung): 0.499 µM | TGI (NCI-H226 lung): 3.35 µM | TGI (EKVX NSCLC): 0.987 µM | TGI (MOLT-4 leukemia): 28 µM | TGI (SF-539 CNS): 1.82 µM | TGI (RXF 393 renal): 0.085 µM | TGI (SF-268 CNS): 0.578 µM | TGI (HL-60(TB) leukemia): 0.592 µM | TGI (MALME-3M melanoma): 1.6 µM | TGI (HOP-92 NSCLC): 0.563 µM | TGI (A549 NSCLC): 0.461 µM | TGI (IGROV1 ovarian): 0.616 µM | TGI (LOX IMVI melanoma): 0.185 µM | TGI (OVCAR-5 ovarian): 0.794 µM | TGI (U251 CNS): 0.752 µM | TGI (SNB-19 CNS): 1.73 µM | TGI (UACC-62 melanoma): 0.734 µM | TGI (CAKI-1 renal): 2.7 µM | TGI (SK-MEL-28 melanoma): 0.862 µM | TGI (OVCAR-4 ovarian): 0.154 µM | TGI (NCI/ADR-RES ovarian): 0.289 µM | TGI (A498 renal): 2.19 µM | TGI (HT29 colon): 0.257 µM | TGI (HOP-18 NSCLC): 0.603 µM | TGI (SF-295 CNS): 0.605 µM | TGI (DLD-1 colon): 0.217 µM | TGI (SN12K1 renal): 0.851 µM | TGI (UACC-257 melanoma): 1.25 µM | TGI (UO-31 renal): 3.97 µM | TGI (RPMI-8226 leukemia): 12.9 µM | TGI (SK-MEL-5 melanoma): 1.95 µM | TGI (HCT-15 colon): 0.245 µM | TGI (SNB-75 CNS): 0.487 µM | TGI (HOP-62 NSCLC): 4.04 µM | TGI (OVCAR-3 ovarian): 0.689 µM | TGI (MCF7 breast): 0.944 µM | TGI (KM12 colon): 1.25 µM | TGI (COLO 205 colon): 0.27 µM | TGI (SK-OV-3 ovarian): 1.4 µM | TGI (SN12C renal): 0.674 µM | TGI (HCC-2998 colon): 0.494 µM | TGI (KM20L2 colon): 0.783 µM | TGI (DMS 273 small cell lung): 0.508 µM | TGI (SNB-78 CNS): 1.73 µM | TGI (SW-620 colon): 0.493 µM | TGI (NCI-H460 lung): 0.339 µM | TGI (NCI-H522 lung): 0.315 µM | TGI (CCRF-CEM leukemia): 10.5 µM | TGI (XF 498 CNS): 0.922 µM | TGI (HCT-116 colon): 0.432 µM

O=[N+]([O-])c1ccc2[nH]c3c(-c4ccccc4)nccc3c2c1
TGI (NCI-H23 lung): > 100 µM | TGI (SK-MEL-2 melanoma): 76.6 µM | TGI (OVCAR-8 ovarian): > 58.7 µM | TGI (DMS 114 small cell lung): > 87.2 µM | TGI (NCI-H226 lung): 50.5 µM | TGI (EKVX NSCLC): > 79.3 µM | TGI (MOLT-4 leukemia): 16.4 µM | TGI (SF-539 CNS): > 100 µM | TGI (RXF 393 renal): > 96.2 µM | TGI (SF-268 CNS): > 80 µM | TGI (HL-60(TB) leukemia): 26.4 µM | TGI (MALME-3M melanoma): 50.7 µM | TGI (M19-MEL melanoma): > 78.4 µM | TGI (HOP-92 NSCLC): 65.9 µM | TGI (A549 NSCLC): > 62 µM | TGI (IGROV1 ovarian): 48.6 µM | TGI (LOX IMVI melanoma): > 100 µM | TGI (OVCAR-5 ovarian): > 100 µM | TGI (U251 CNS): > 64.9 µM | TGI (SNB-19 CNS): 58.5 µM | TGI (UACC-62 melanoma): 38.6 µM | TGI (SK-MEL-28 melanoma): > 85.3 µM | TGI (OVCAR-4 ovarian): > 63.1 µM | TGI (NCI/ADR-RES ovarian): > 65.1 µM | TGI (A498 renal): > 100 µM | TGI (HT29 colon): > 100 µM | TGI (HOP-18 NSCLC): 61.9 µM | TGI (SF-295 CNS): 45.7 µM | TGI (P388/ADR leukemia): 31.4 µM | TGI (DLD-1 colon): > 94.3 µM | TGI (SN12K1 renal): 79.9 µM | TGI (UACC-257 melanoma): 89.4 µM | TGI (UO-31 renal): 44.4 µM | TGI (RPMI-8226 leukemia): > 100 µM | TGI (SK-MEL-5 melanoma): > 61.1 µM | TGI (HCT-15 colon): > 74.7 µM | TGI (SNB-75 CNS): 38.3 µM | TGI (HOP-62 NSCLC): 43 µM | TGI (OVCAR-3 ovarian): 39.4 µM | TGI (MCF7 breast): > 60.3 µM | TGI (KM12 colon): > 100 µM | TGI (COLO 205 colon): > 86.8 µM | TGI (SK-OV-3 ovarian): 55.7 µM | TGI (SN12C renal): > 84.6 µM | TGI (HCC-2998 colon): 71 µM | TGI (KM20L2 colon): > 100 µM | TGI (P388 leukemia): > 47.3 µM | TGI (DMS 273 small cell lung): 18.1 µM | TGI (SNB-78 CNS): 93.1 µM | TGI (K-562 leukemia): > 100 µM | TGI (SW-620 colon): > 89.7 µM | TGI (NCI-H460 lung): 40.9 µM | TGI (NCI-H522 lung): 37.4 µM | TGI (CCRF-CEM leukemia): 62.7 µM | TGI (XF 498 CNS): > 61.7 µM | TGI (HCT-116 colon): > 51.8 µM
